Laboratory results taken from PMC4941420, “A Rational Approach for the Identification of Non-Hydroxamate HDAC6-Selective Inhibitors” (Scientific Reports, 2016).

Legend:
[1] = Cytotoxicity XTT, HEK 293; assay type: cell-based; settings: human, HEK 293 cells (ATCC CRL-1573), mean ± SD of 3 independent experiments in triplicate, read-out: cytotoxic IC50 HEK 293
Experimental: HeLa and HEK 293 cells (ATCC CRL-1573) were cultured as described above and seeded into 96-well plates at 400 cells/well. Test and standard compounds were added to plate wells in triplicate (0.05% DMSO in culture medium) in a range of six concentrations. Following 72 h of incubation, […] of an activated XTT solution was added to the cells (1 mg/mL). The absorbance was measured at 450 nm after 2 h incubation at 37 °C. The growth of the compound-treated cells was compared with the growth of vehicle-treated control cells. IC50 values were calculated with GraphPad Prism 6.0.

[2] = test system: class I HDACs (HeLa nuclear extracts); test: HDAC activity of HeLa nuclear extracts (Fluor de Lys); assay type: biochemical, human; settings: 100 μM, average of at least 3 independent experiments in duplicates (Table 1)
[3] = test system: histone H4 acetylation in HeLa cells; test: Acetyl histone H4 Western blotting in HeLa cells; assay type: cell-based, human; settings: 500 μM, 6 h
Experimental: The acetyl-α-tubulin sandwich ELISA Kit (Pathscan® #7204, Cell Signalling) was used to determine tubulin acetylation levels, and Western blotting was used to evaluate histone H4 acetylation, both methods applied to lysates of treated and non-treated HeLa cells (ATCC CCL-2). Cells were cultured in DMEM medium, 4.5 g/L glucose, L-glutamine (Invitrogen), supplemented with 10% heat-inactivated fetal bovine serum (FBS, Biowest), 100 units/mL penicillin, and 100 μg/mL streptomycin, and 1% non-essential amino acids (Invitrogen) at 37 °C with 5% CO2. Prior to ELISA experiments, cells were seeded into 6-well plates at 150,000 cells/well and transfected with the HDAC6-GFP construct (pEGFP.N1-HDAC6, Addgene)[58], using the Lipofectamine 2000 reagent (Invitrogen). Cells were then treated with test compounds, standards or vehicle (0.5% DMSO in culture medium) for 48 h. After the incubation time, cells were washed with cold DPBS (Invitrogen) and lysates were obtained by recovering cells in cold lysis buffer provided in the ELISA kit, supplemented with a protease inhibitor tablet (SigmaFast, Sigma Aldrich). Briefly, cells were harvested in DPBS and centrifuged. The cell pellet was suspended in 100 μL lysis buffer, vortexed, and kept on melting ice for 30 min. […] Protein concentration was determined by fluorimetry using the Qubit protein assay kit (Invitrogen). […]

[4] = PAMPA-BBB; assay type: in vitro ADME
Experimental: The PAMPA experiment was performed according to the PAMPA-BBB method described by Di et al.[46]. Test compounds were dissolved at 20 mM in DMSO and then diluted 200 times using a buffer solution at pH 7.4 (prepared according to the Geigy table, containing 54 mM Na2HPO4 and 13 mM KH2PO4). The resulting solutions, containing the compounds at 100 μM (0.5% DMSO), represented the donor solutions at the initial time. A total of 280 μL of the donor solution were added in each well of a Teflon® 96-well microplate (Millipore MSSACCEPTOR) forming the donor compartments. Each well of a hydrophobic polyvinylidene fluoride (PVDF) 96-well microtitre filter plate (Multiscreen® MAIPN4550, 70% porosity, pore diameter 0.45 μm, cross-sectional area 0.3 cm^2) was impregnated with 4 μL of a polar brain lipids solution (20 mg/mL in dodecane, PBL obtained from Avanti Polar Lipids), placed under a fume hood and subjected to constant shaking at 75 rpm for approximately 10 min to homogeneously lay the artificial membrane. […] Each tested compound was analysed in triplicate. The effective passive permeability value (Pe) was calculated according the two-way flux equations, obtained from the Fick’s law[47]. The calculated effective passive permeability values Pe were considered relevant only if RSD < 15% as quality control was fulfilled. […]

SMILES: NNC(=O)c1ccc(COc2ccccc2Cl)cc1 [AK-14]
- IC50 at 72 h [1]: 34.5 ± 4.8 µM
- HeLa % of inhibition at 100 μM [2]: 2.7 ± 1.3%
- acetylation profile of histone H4 [3]: did not change
- Papp at 18 h, 100 μM ([4]; PAMPA, pH 7.4, 100 μM donor, 18 hours, room temperature, read-out: effective passive permeability Pe (PAMPA-BBB)): 6.5 ×10⁻⁶ cm/s
- PAMPA-BBB classification ([4]; pH 7.4): CNS +
